Results reported in patent US20230391739A1, “ARYL DERIVATIVES FOR TREATING TRPM3 MEDIATED DISORDERS” (Katholieke Universiteit Leuven, priority 2020, published 2023).

molecular target: T1, mouse TRPM3α2 (mTRPM3) ion channel (Mus musculus, UniProt J9SQF3); experiment: TRPM3 ion channel driven Ca2+ uptake, Fluo-4 AM assay, PS-stimulated (mTRPM3); assay type: cell-based; conditions: TRPM3 overexpressing flip-in HEK293 cells stimulated with Pregnenolone sulfate (PS) 50 μM, activity ranges A, B, C
T1 construct: expressed in transfected cells; host or cells: flip-in HEK293
Procedure, shortened: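 Ca²⁺ influx through mouse TRPM3α2, opened by 50 μM pregnenolone sulfate, was tracked with Fluo-4 AM in stably transfected HEK293 cells read directly after seeding onto pre-dispensed compound.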

T1 sequence (J9SQF3 1-1709 isoform J9SQF3-12): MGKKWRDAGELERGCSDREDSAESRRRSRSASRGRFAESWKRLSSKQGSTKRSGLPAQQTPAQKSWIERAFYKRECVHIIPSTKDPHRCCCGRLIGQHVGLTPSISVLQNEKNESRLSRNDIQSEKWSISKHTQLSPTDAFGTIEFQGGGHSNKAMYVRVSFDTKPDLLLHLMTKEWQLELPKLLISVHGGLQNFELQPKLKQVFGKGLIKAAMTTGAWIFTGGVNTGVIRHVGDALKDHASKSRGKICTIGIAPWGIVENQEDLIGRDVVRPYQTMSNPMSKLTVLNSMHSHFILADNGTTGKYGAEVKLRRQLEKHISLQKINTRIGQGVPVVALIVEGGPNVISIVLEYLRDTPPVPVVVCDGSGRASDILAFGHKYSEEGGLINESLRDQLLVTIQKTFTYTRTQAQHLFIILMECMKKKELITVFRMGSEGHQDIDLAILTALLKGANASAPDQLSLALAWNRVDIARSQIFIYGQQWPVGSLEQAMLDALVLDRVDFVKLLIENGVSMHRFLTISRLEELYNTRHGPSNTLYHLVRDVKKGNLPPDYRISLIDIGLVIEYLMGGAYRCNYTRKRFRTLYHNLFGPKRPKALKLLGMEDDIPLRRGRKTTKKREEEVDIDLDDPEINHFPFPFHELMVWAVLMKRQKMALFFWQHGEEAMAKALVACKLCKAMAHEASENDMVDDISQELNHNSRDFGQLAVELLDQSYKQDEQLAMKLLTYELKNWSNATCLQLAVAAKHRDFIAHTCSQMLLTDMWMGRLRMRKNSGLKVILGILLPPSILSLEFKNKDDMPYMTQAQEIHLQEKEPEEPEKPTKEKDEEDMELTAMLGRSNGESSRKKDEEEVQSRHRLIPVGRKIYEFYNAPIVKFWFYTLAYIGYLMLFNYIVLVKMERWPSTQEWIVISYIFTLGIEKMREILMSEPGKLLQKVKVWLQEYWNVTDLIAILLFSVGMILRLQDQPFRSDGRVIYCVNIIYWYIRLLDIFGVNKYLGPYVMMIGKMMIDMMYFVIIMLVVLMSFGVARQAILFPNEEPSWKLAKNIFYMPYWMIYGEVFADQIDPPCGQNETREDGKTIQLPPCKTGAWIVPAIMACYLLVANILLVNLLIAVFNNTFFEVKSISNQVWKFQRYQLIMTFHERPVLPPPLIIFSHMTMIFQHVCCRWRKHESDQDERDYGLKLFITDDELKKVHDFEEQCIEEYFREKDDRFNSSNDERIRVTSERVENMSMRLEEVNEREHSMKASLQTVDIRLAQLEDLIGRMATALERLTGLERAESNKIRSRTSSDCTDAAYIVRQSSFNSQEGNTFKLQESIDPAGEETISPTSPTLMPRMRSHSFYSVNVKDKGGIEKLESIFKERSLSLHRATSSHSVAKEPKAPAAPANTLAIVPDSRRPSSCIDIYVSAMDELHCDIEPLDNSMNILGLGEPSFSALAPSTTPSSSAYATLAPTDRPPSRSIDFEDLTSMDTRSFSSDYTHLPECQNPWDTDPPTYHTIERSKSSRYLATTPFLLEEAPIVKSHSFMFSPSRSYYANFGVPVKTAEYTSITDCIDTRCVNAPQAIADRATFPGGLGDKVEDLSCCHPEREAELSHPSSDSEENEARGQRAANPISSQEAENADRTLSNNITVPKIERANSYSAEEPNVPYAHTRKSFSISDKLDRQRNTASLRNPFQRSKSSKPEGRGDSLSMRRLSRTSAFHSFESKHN

Question: With `Cc1oc2ccc(OCc3ccccc3)cc2c1C(=O)NC1CCN(C(C)C)CC1` [Cpd 185, 5-(benzyloxy)-N-(1-isopropylpiperidin-4-yl)-2-methylbenzofuran-3-carboxamide] as the compound, how does the IC50 read?
Answer: The IC50 was under 1000 nM.

Question: `Cc1oc2ccc(OCc3ccccc3)cc2c1C(=O)NC1CCC(N(C)C)CC1` (stereo not drawn) [Cpd 186, 5-(benzyloxy)-N-(4-(dimethylamino)cyclohexyl)-2-methylbenzofuran-3-carboxamide] was tested. Which IC50 did it give?
Answer: Its IC50 is under 1000 nM.

Question: With `Cc1oc2ccc(OCc3ccccc3)cc2c1C(=O)NCC1(N(C)C)CCCC1` [Cpd 187, 5-(benzyloxy)-N-((1-(dimethylamino)cyclopentyl)methyl)-2-methylbenzofuran-3-carboxamide] as the compound, how does the IC50 read?
Answer: The IC50 was under 1000 nM.

Question: How did the IC50 turn out when `CNC(=O)[C@@H]1C[C@@H](NC(=O)c2c(C)oc3ccc(OCc4ccccc4)cc23)CN1` [Cpd 188, (2S,4R)-4-(5-(benzyloxy)-2-methylbenzofuran-3-carboxamido)-N-methylpyrrolidine-2-carboxamide] was run?
Answer: Its IC50 is 1000 to 20000 nM.

Question: For `Cc1oc2ccc(OCc3ccccc3)cc2c1C(=O)NCCN1CCN(C)CC1` [Cpd 189, 5-(benzyloxy)-2-methyl-N-(2-(4-methylpiperazin-1-yl)ethyl)benzofuran-3-carboxamide], which IC50 is on record?
Answer: Its IC50 is 1000 to 20000 nM.

Question: `Cc1oc2ccc(OCc3ccc(CN)cc3)cc2c1C(=O)NC1CCN(C)CC1` [Cpd 190, 5-((4-(aminomethyl)benzyl)oxy)-2-methyl-N-(1-methylpiperidin-4-yl)benzofuran-3-carboxamide] was tested. Which IC50 did it give?
Answer: Its IC50 is over 20000 nM.

Question: For `COC(=O)[C@@H]1C[C@H](NC(=O)c2c(C)oc3ccc(OCc4ccccc4)cc23)CN1` [Cpd 191, methyl (2S,4S)-4-(5-(benzyloxy)-2-methylbenzofuran-3-carboxamido)pyrrolidine-2-carboxylate], which IC50 is on record?
Answer: The IC50 was under 1000 nM.

Question: `Cc1oc2ccc(OCc3ccccc3CO)cc2c1C(=O)NC1CCN(C)CC1` [Cpd 192, 5-((2-(hydroxymethyl)benzyl)oxy)-2-methyl-N-(1-methylpiperidin-4-yl)benzofuran-3-carboxamide] was tested. Which IC50 did it give?
Answer: Its IC50 is 1000 to 20000 nM.

Question: Which IC50 does the source give for `Cc1oc2ccc(OCc3ccccc3)cc2c1C(=O)NC1(C(=O)O)CCOCC1` [Cpd 193, 4-(5-(benzyloxy)-2-methylbenzofuran-3-carboxamido)tetrahydro-2H-pyran-4-carboxylic acid] here?
Answer: The IC50 was 1000 to 20000 nM.

Question: For `CCc1oc2ccc(OCc3cccc(F)c3)cc2c1C(=O)NC1CCN(C)CC1` [Cpd 194, 2-ethyl-5-((3-fluorobenzyl)oxy)-N-(1-methylpiperidin-4-yl)benzofuran-3-carboxamide], which IC50 is on record?
Answer: The IC50 was 1000 to 20000 nM.

Question: How did the IC50 turn out when `Cc1oc2ccc(OCc3ccccc3)cc2c1C(=O)NS(=O)(=O)C(F)(F)F` [Cpd 195, 5-(benzyloxy)-2-methyl-N-((trifluoromethyl)sulfonyl)benzofuran-3-carboxamide] was run?
Answer: Its IC50 is over 20000 nM.

Question: How did the IC50 turn out when `Cc1oc2ccc(OCc3ccccc3)cc2c1C(=O)NCc1nnc2ncccn12` [Cpd 196, N-([1,2,4]triazolo[4,3-a]pyrimidin-3-ylmethyl)-5-(benzyloxy)-2-methylbenzofuran-3-carboxamide] was run?
Answer: Its IC50 is 1000 to 20000 nM.

Question: `Cc1oc2ccc(OCc3ccccc3F)cc2c1C(=O)NC1(CO)CCOCC1` [Cpd 197, 5-((2-fluorobenzyl)oxy)-N-(4-(hydroxymethyl)tetrahydro-2H-pyran-4-yl)-2-methylbenzofuran-3-carboxamide] was tested. Which IC50 did it give?
Answer: The IC50 was under 1000 nM.

Question: Which IC50 does the source give for `Cc1oc2ccc(OCc3ccccc3)cc2c1C(=O)NC1CCS(=O)(=O)CC1` [Cpd 198, 5-(benzyloxy)-N-(1,1-dioxidotetrahydro-2H-thiopyran-4-yl)-2-methylbenzofuran-3-carboxamide] here?
Answer: The IC50 was under 1000 nM.

Question: With `COc1ccccc1COc1ccc2oc(C)c(C(=O)NS(=O)(=O)C3CC3)c2c1` [Cpd 199, N-(cyclopropylsulfonyl)-5-((2-methoxybenzyl)oxy)-2-methylbenzofuran-3-carboxamide] as the compound, how does the IC50 read?
Answer: Its IC50 is under 1000 nM.

Question: With `Cc1cc(C)c(CNC(=O)c2c(C)oc3ccc(OCc4ccccc4)cc23)c(=O)[nH]1` [Cpd 200, 5-(benzyloxy)-N-((4,6-dimethyl-2-oxo-1,2-dihydropyridin-3-yl)methyl)-2-methylbenzofuran-3-carboxamide] as the compound, how does the IC50 read?
Answer: The IC50 was over 20000 nM.

Question: `Cc1oc2ccc(OCc3ccccc3F)cc2c1C(=O)NC1CCNCC1(F)F` (stereo not drawn) [Cpd 201, N-(3,3-difluoropiperidin-4-yl)-5-((2-fluorobenzyl)oxy)-2-methylbenzofuran-3-carboxamide] was tested. Which IC50 did it give?
Answer: The IC50 was under 1000 nM.

Question: With `Cc1oc2ccc(OCc3ccc(C(F)(F)F)cc3)cc2c1C(=O)N[C@H]1CCNC1` [Cpd 202, (S)-2-methyl-N-(pyrrolidin-3-yl)-5-((4-(trifluoromethyl)benzyl)oxy)benzofuran-3-carboxamide] as the compound, how does the IC50 read?
Answer: The IC50 was 1000 to 20000 nM.

Question: With `Cc1oc2ccc(OCc3ccccc3C(F)(F)F)cc2c1C(=O)N[C@H]1CCNC1` [Cpd 203, (S)-2-methyl-N-(pyrrolidin-3-yl)-5-((2-(trifluoromethyl)benzyl)oxy)benzofuran-3-carboxamide] as the compound, how does the IC50 read?
Answer: The IC50 was under 1000 nM.

Question: For `Cc1oc2ccc(OCc3cccc(C(F)(F)F)c3)cc2c1C(=O)N[C@H]1CCNC1` [Cpd 204, (S)-2-methyl-N-(pyrrolidin-3-yl)-5-((3-(trifluoromethyl)benzyl)oxy)benzofuran-3-carboxamide], which IC50 is on record?
Answer: The IC50 was under 1000 nM.

Question: With `Cc1oc2ccc(OCc3ccccc3)cc2c1C(=O)N[C@H]1C[C@H]2CN(C)CCN2C1` [Cpd 205, 5-(benzyloxy)-2-methyl-N-((7S,8aS)-2-methyloctahydropyrrolo[1,2-a]pyrazin-7-yl)benzofuran-3-carboxamide] as the compound, how does the IC50 read?
Answer: The IC50 was 1000 to 20000 nM.

Question: For `Cc1oc2ccc(OCc3ccccc3)cc2c1C(=O)N[C@H]1CCCN(C2COC2)C1` [Cpd 206, (S)-5-(benzyloxy)-2-methyl-N-(1-(oxetan-3-yl)piperidin-3-yl)benzofuran-3-carboxamide], which IC50 is on record?
Answer: The IC50 was 1000 to 20000 nM.

Question: For `Cc1oc2ccc(OCc3ccccc3)cc2c1C(=O)N[C@@H]1CCCN(C2COC2)C1` [Cpd 207, (R)-5-(benzyloxy)-2-methyl-N-(1-(oxetan-3-yl)piperidin-3-yl)benzofuran-3-carboxamide], which IC50 is on record?
Answer: Its IC50 is under 1000 nM.

Question: How did the IC50 turn out when `Cc1oc2ccc(OCc3ccccc3)cc2c1C(=O)NC1CCN(C2COC2)CC1` [Cpd 208, 5-(benzyloxy)-2-methyl-N-(1-(oxetan-3-yl)piperidin-4-yl)benzofuran-3-carboxamide] was run?
Answer: The IC50 was 1000 to 20000 nM.

Question: `Cc1oc2ccc(OCc3ccccc3)cc2c1C(=O)NC1CC(C)(C)NC(C)(C)C1` [Cpd 209, 5-(benzyloxy)-2-methyl-N-(2,2,6,6-tetramethylpiperidin-4-yl)benzofuran-3-carboxamide] was tested. Which IC50 did it give?
Answer: Its IC50 is 1000 to 20000 nM.

Question: With `Cc1oc2ccc(OCc3ccccc3)cc2c1C(=O)N[C@H]1CC[C@H](C(C)(C)O)CC1` [Cpd 210, 5-(benzyloxy)-N-(trans-4-(2-hydroxypropan-2-yl)cyclohexyl)-2-methylbenzofuran-3-carboxamide] as the compound, how does the IC50 read?
Answer: The IC50 was 1000 to 20000 nM.

Question: For `Cc1oc2ccc(OCc3cccc(F)c3F)cc2c1C(=O)NC1CNCC1(F)F` (stereo not drawn) [Cpd 211, 5-((2,3-difluorobenzyl)oxy)-N-(4,4-difluoropyrrolidin-3-yl)-2-methylbenzofuran-3-carboxamide], which IC50 is on record?
Answer: Its IC50 is under 1000 nM.

Question: With `COC(=O)C1(NC(=O)c2c(C)oc3ccc(OCc4ccccc4)cc23)CCOCC1` [Cpd 212, methyl 4-(5-(benzyloxy)-2-methylbenzofuran-3-carboxamido)tetrahydro-2H-pyran-4-carboxylate] as the compound, how does the IC50 read?
Answer: The IC50 was under 1000 nM.

Question: Which IC50 does the source give for `Cc1oc2ccc(OCc3ccccc3)cc2c1C(=O)N1CCN(c2ccccn2)CC1` [Cpd 214, (5-(benzyloxy)-2-methylbenzofuran-3-yl)(4-(pyridin-2-yl)piperazin-1-yl)methanone] here?
Answer: Its IC50 is 1000 to 20000 nM.

Question: Which IC50 does the source give for `Cc1oc2ccc(OCc3ccccc3)cc2c1C(=O)N[C@H]1CCN(S(C)(=O)=O)C1` [Cpd 215, (S)-5-(benzyloxy)-2-methyl-N-(1-(methylsulfonyl)pyrrolidin-3-yl)benzofuran-3-carboxamide] here?
Answer: Its IC50 is under 1000 nM.

Question: Which IC50 does the source give for `Cc1oc2ccc(OCc3ccccc3)cc2c1C(=O)NCC(c1ccccc1)N(C)C` (stereo not drawn) [Cpd 216, 5-(benzyloxy)-N-(2-(dimethylamino)-2-phenylethyl)-2-methylbenzofuran-3-carboxamide] here?
Answer: The IC50 was 1000 to 20000 nM.

Question: How did the IC50 turn out when `Cc1oc2ccc(OCc3cccc(F)c3F)cc2c1C(=O)NC1(CO)CCOCC1` [Cpd 217, 5-((2,3-difluorobenzyl)oxy)-N-(4-(hydroxymethyl)tetrahydro-2H-pyran-4-yl)-2-methylbenzo-furan-3-carboxamide] was run?
Answer: Its IC50 is under 1000 nM.

Question: How did the IC50 turn out when `Cc1oc2ccc(OCc3c(F)cccc3F)cc2c1C(=O)NC1(CO)CCOCC1` [Cpd 218, 5-((2,6-difluorobenzyl)oxy)-N-(4-(hydroxymethyl)tetrahydro-2H-pyran-4-yl)-2-methylbenzo-furan-3-carboxamide] was run?
Answer: The IC50 was under 1000 nM.

Question: With `Cc1oc2ccc(OCc3ccccc3C(F)(F)F)cc2c1C(=O)NC1CCNC1=O` (stereo not drawn) [Cpd 219, 2-methyl-N-(2-oxopyrrolidin-3-yl)-5-((2-(trifluoromethyl)benzyl)oxy)benzofuran-3-carboxamide] as the compound, how does the IC50 read?
Answer: The IC50 was under 1000 nM.

Question: Which IC50 does the source give for `CN1CCC(NC(=O)c2c(C3CCCC3)oc3ccc(OCc4ccccc4)cc23)CC1` [Cpd 221, 5-(benzyloxy)-2-cyclopentyl-N-(1-methylpiperidin-4-yl)benzofuran-3-carboxamide] here?
Answer: Its IC50 is over 20000 nM.

Question: `Cc1oc2ccc(OCc3ccccc3)cc2c1C(=O)N[C@H]1C[C@H]2C(=O)NCC(=O)N2C1` [Cpd 222, 5-(benzyloxy)-N-((7S,8aS)-1,4-dioxooctahydropyrrolo[1,2-a]pyrazin-7-yl)-2-methylbenzofuran-3-carboxamide] was tested. Which IC50 did it give?
Answer: Its IC50 is 1000 to 20000 nM.

Question: For `Cc1oc2ccc(OCc3cccc(OC(F)(F)F)c3)cc2c1C(=O)N[C@H]1CCNC1` [Cpd 223, (S)-2-methyl-N-(pyrrolidin-3-yl)-5-((3-(trifluoromethoxy)benzyl)oxy)benzofuran-3-carboxamide], which IC50 is on record?
Answer: The IC50 was 1000 to 20000 nM.

Question: With `Cc1oc2ccc(OC(CCN(C)C)c3ccccc3)cc2c1C(=O)NC1CCNC1=O` (stereo not drawn) [Cpd 224, 5-(3-(dimethylamino)-1-phenylpropoxy)-2-methyl-N-(2-oxopyrrolidin-3-yl)benzofuran-3-carboxamide] as the compound, how does the IC50 read?
Answer: Its IC50 is over 20000 nM.

Question: How did the IC50 turn out when `Cc1oc2ccc(OCc3ccccc3)cc2c1C(=O)NC1CCN(CCN(C)C)CC1` [Cpd 225, 5-(benzyloxy)-N-(1-(2-(dimethylamino)ethyl)piperidin-4-yl)-2-methylbenzofuran-3-carboxamide] was run?
Answer: Its IC50 is 1000 to 20000 nM.
